The values below come from article PMC7932537, “Quantitative profiling of protease specificity” (PLoS Computational Biology, 2021).

In one assay the test system is MMP-2. Description: Substrate phage display with NGS: relative probability (RP) of P3-P1' tetramer clusters. In kind it is biochemical, human. To be noted: MMP2 - no binning; average relative probability (RP) of the P3-P1' tetramer; redundant tetramers have been averaged out.
As to THHL, the avg_RP stood at 0.3701.

On to AENL, for which the avg_RP was found to be 6.7504.

In turn, YAHY returned an avg_RP of 10.8158.

GMAL returned an avg_RP of 1.3132.

Consider PLDM, for which the avg_RP is 20.8822.

The substance VHAL gave an avg_RP of 19.753.

MALL returned an avg_RP of 16.9256.

AWMM returned an avg_RP of 1.3213.

GHNL came in with an avg_RP of 0.2721.

The substance PMSL showed an avg_RP of 32.4868.

LMAL yielded an avg_RP of 15.4189.

Take VYRL: the avg_RP was 5.0832.

Substance PSLI had an avg_RP of 16.6444.

In turn, YAWM registered an avg_RP of 14.9473.

Regarding SWPL, the avg_RP is recorded as 0.4201.

The substance VKFL returned an avg_RP of 9.5539.

The substance ALAM showed an avg_RP of 20.8553.

As to YLNY, the avg_RP is listed as 1.6791.

Turning to PHCL, the avg_RP was found to be 0.499.

In the case of HQSL, the avg_RP came to 10.5998.

As for IASL, the avg_RP worked out at 32.8949.

With VWHL, the avg_RP is recorded as 10.1663.

With PRWI, the avg_RP turned out to be 30.8879.

As for MFSL, the avg_RP was determined as 0.2905.

The substance YLPL gave an avg_RP of 2.3089.

Consider VDQL, for which the avg_RP is reported as 0.0432.

PFMI had an avg_RP of 4.6361.

For the substance PYFL, the avg_RP is listed as 19.1471.

TMWL displayed an avg_RP of 5.1973.

The substance AFHI yielded an avg_RP of 0.4414.

In turn, MQRL returned an avg_RP of 9.3428.

The substance PYLL registered an avg_RP of 11.898.

PVNM registered an avg_RP of 30.0312.

VYAL came in with an avg_RP of 19.6906.

Regarding YLNL, the avg_RP was 0.3873.

For NLPL, the avg_RP is listed as 4.8994.

Regarding VGVL, the avg_RP stood at 7.4169.

IWAL registered an avg_RP of 5.7953.

Still in this assay, the particulars now being: MMP2 - no binning; average relative probability of the P3-P1' tetramer; redundant tetramers have been averaged out.
The substance AVAL came in with an avg_RP of 27.4369.

For LWSL, the avg_RP came to 8.3838.

The substance LAKL displayed an avg_RP of 21.2737.

WSGM yielded an avg_RP of 18.3143.

For AQAL, the avg_RP was 22.7358.

Substance LSNL registered an avg_RP of 32.5007.

As to ARFL, the avg_RP is 8.5771.

As for YRHM, the avg_RP is reported as 0.3212.

The substance SYAL gave an avg_RP of 4.7967.

LWKL returned an avg_RP of 0.

Consider IAYL, for which the avg_RP turned out to be 27.9862.

With PLHL, the avg_RP turned out to be 34.1843.

On to VLMM, for which the avg_RP turned out to be 2.7364.

AISM showed an avg_RP of 11.4166.

Consider VFNL, for which the avg_RP was found to be 14.497.

MFHL: the avg_RP came to 0.052.

Take VELL: the avg_RP was determined as 0.

For the substance ARSM, the avg_RP turned out to be 12.2991.

As for LGHL [P3-P1' tetramer cluster], the avg_RP is given as 31.1653.

In turn, IYAL registered an avg_RP of 6.9669.

For the substance VDYL, the avg_RP was 1.426.

Consider VYML, for which the avg_RP is given as 5.0943.

For the substance VNYL, the avg_RP is given as 8.4267.

Regarding LAAM [P3-P1' tetramer cluster], the avg_RP worked out at 30.6825.

FSEL yielded an avg_RP of 12.1057.

For the substance SWSL, the avg_RP is recorded as 0.0547.

Substance AQML yielded an avg_RP of 8.608.

The substance VFSM came in with an avg_RP of 2.2653.

Substance WHNM gave an avg_RP of 0.

For AWYL, the avg_RP came out at 0.0964.

Consider VNNL, for which the avg_RP worked out at 17.6966.

Regarding VRML, the avg_RP is given as 15.9125.

ISHL yielded an avg_RP of 30.7015.

For the substance AYNL, the avg_RP came out at 20.8713.

Substance LASQ displayed an avg_RP of 21.0724.

The substance HMRL displayed an avg_RP of 0.0574.

Regarding TLHL, the avg_RP stood at 2.4714.

On to VHSF, for which the avg_RP is 0.0855.

For the substance TRNL, the avg_RP is 12.3403.

For the substance GFQL, the avg_RP stood at 0.0467.

As to GLEL, the avg_RP was found to be 0.

The substance AYHM had an avg_RP of 3.7603.

ALHL displayed an avg_RP of 14.6488.

LGTL gave an avg_RP of 24.6198.

The substance PMQL had an avg_RP of 27.6586.

On to GASL, for which the avg_RP came out at 9.5377.

In turn, LRQM had an avg_RP of 8.6765.

On to PFFM, for which the avg_RP is 3.5092.

Turning to WLAL, the avg_RP was determined as 1.2175.

Substance PHMM had an avg_RP of 14.968.

LLNM showed an avg_RP of 13.7728.

FRGL: the avg_RP amounted to 7.4752.

The substance LASL [P3-P1' tetramer cluster] yielded an avg_RP of 31.1996.

With VHQM, the avg_RP turned out to be 0.

On to SMRL, for which the avg_RP amounted to 0.

In the case of IGNF, the avg_RP is listed as 24.8743.

Turning to SGFL, the avg_RP was 6.5712.

VWLL: the avg_RP is on record as 0.5351.

As to PFYM, the avg_RP is given as 8.1842.

Substance LLDL displayed an avg_RP of 0.3542.

Substance YAYI displayed an avg_RP of 1.7086.

On to WYGM, for which the avg_RP came out at 0.0531.

Take PRAW: the avg_RP was 34.1791.

Consider PNWL, for which the avg_RP is recorded as 26.5667.

The substance AHLL showed an avg_RP of 1.4368.

As for GMNM, the avg_RP is listed as 0.

VHRL gave an avg_RP of 1.5304.

For the substance YMNI, the avg_RP is given as 0.

In turn, AHSL came in with an avg_RP of 21.0212.

In turn, YGEL gave an avg_RP of 16.6627.

SGQL had an avg_RP of 1.0305.

VLHL came in with an avg_RP of 19.5348.

As to AWGL, the avg_RP turned out to be 17.7408.

On to FSNL, for which the avg_RP amounted to 24.

For the substance ANYL, the avg_RP stood at 3.9008.

Substance GLAL registered an avg_RP of 0.6848.

Regarding PLTI, the avg_RP is 16.7446.

As to PMRL, the avg_RP is recorded as 20.4124.

VWAL showed an avg_RP of 12.7502.

The assay is the same for the next values; noted with them: MMP2 - no binning; average relative probability of the tetramer; redundant tetramers averaged out.
The substance AHGL showed an avg_RP of 23.6336.

For the substance PLMY, the avg_RP came to 17.2027.

As to ANAL, the avg_RP came out at 20.3526.

The substance PYGM yielded an avg_RP of 27.2726.

Consider MGRL, for which the avg_RP amounted to 18.6873.

Consider PWGM, for which the avg_RP came out at 25.1614.

For PYSL, the avg_RP worked out at 30.7259.

FGAL registered an avg_RP of 25.0961.

PRGN: the avg_RP was 16.6168.

In the case of FAHL, the avg_RP came out at 19.6504.

Substance AWSL had an avg_RP of 7.006.

YAHL displayed an avg_RP of 18.7061.

As to YLHL, the avg_RP is on record as 0.4077.

SGHL gave an avg_RP of 1.458.

In the case of PRVL, the avg_RP turned out to be 13.9079.

With VSFL, the avg_RP was found to be 5.9184.

SANL: the avg_RP was found to be 23.7816.

GYHL displayed an avg_RP of 0.0815.

For ALGI, the avg_RP turned out to be 18.2164.

VFSL returned an avg_RP of 9.6313.

As for PMHL, the avg_RP stood at 30.095.

Substance GYAL returned an avg_RP of 0.5867.

For the substance YQGL, the avg_RP came out at 4.3322.

In turn, HRSL registered an avg_RP of 7.8508.

PKGM showed an avg_RP of 31.666.

ANNL had an avg_RP of 18.8719.

Consider LAAW, for which the avg_RP turned out to be 24.7038.

Substance WHGL gave an avg_RP of 0.5588.

As for GSHL, the avg_RP is reported as 4.2785.

As to VRGL, the avg_RP was found to be 29.092.

Consider PEWY, for which the avg_RP is 14.0361.

For PGKM, the avg_RP came out at 18.9001.

In turn, SLAW had an avg_RP of 18.2943.

IWSL: the avg_RP is listed as 5.404.

For VRWS, the avg_RP is recorded as 8.0593.

Consider PRGS, for which the avg_RP is listed as 16.3331.

Take MESL: the avg_RP was found to be 8.7752.

In turn, TQNL had an avg_RP of 7.2378.

As for PSLY, the avg_RP was determined as 18.1013.

The substance MAWL yielded an avg_RP of 31.5866.

In turn, PLKV registered an avg_RP of 0.2165.

TNWL: the avg_RP came to 15.348.

VMGI showed an avg_RP of 12.4242.

On to AYNF, for which the avg_RP was 6.7246.

Substance WFAL yielded an avg_RP of 0.

Regarding VLSL, the avg_RP came out at 10.8506.

VNWM returned an avg_RP of 16.277.

VVWY yielded an avg_RP of 9.9375.

Regarding PKWL, the avg_RP is 29.287.

As for PQMI, the avg_RP was found to be 16.6558.

In turn, LLAM had an avg_RP of 10.8556.

On to VRHV, for which the avg_RP amounted to 9.5401.

With PKLI, the avg_RP was 0.9254.

SRGL gave an avg_RP of 6.1644.

For the substance VWHI, the avg_RP turned out to be 1.9312.

With PYKL, the avg_RP is reported as 15.5683.

In the case of WRGL, the avg_RP is recorded as 23.375.

With VHHL, the avg_RP turned out to be 14.1228.

ARNL showed an avg_RP of 24.6947.

As for PWAL, the avg_RP came to 31.9211.

On to MAAL, for which the avg_RP is 32.6562.

Substance YHHL came in with an avg_RP of 0.

MLHL: the avg_RP worked out at 8.4169.

As to SWGL, the avg_RP was 0.1389.

Staying with this assay, now noted: MMP2; RP of matching P3-P1' tetramer; common set of MMP2-9 selectome; RP above KL threshold.
With AGSL, the “relative probability (RP) (acc.to MMP2)” value worked out at 14.97.

The assay is the same for the next values; noted with them: P3-P1' tetramer matching the MS detected MMP2 cleavage sequence; RP_above_4.5.
Turning to AGSL, the “relative probability (RP) of matching tetramer” value is 14.97.

Still in this assay, the particulars now being: tetramer annotation of MMP-2 cleavage sites in all substrates from MEROPS.
AAGL: the “relative probability (RP)” value is on record as 29.36.

The same assay, now with this note: tetramer annotation of MMP-2 cleavage sites in physiologic substrates from MEROPS.
FSRI: the “relative probability (RP)” value is given as 0.35.

Regarding FAPG, the “relative probability (RP)” value was determined as 0.08.

The assay is the same for the next values; noted with them: tetramer clusters unique to the MMP-2 selectome, MMP-2 RP.
In turn, LGHL [P3-P1' tetramer cluster] showed a relative_probability of 31.17.

The substance LAAM [P3-P1' tetramer cluster] returned a relative_probability of 30.68.

LGNM [P3-P1' tetramer cluster] had a relative_probability of 29.28.

As for IGQL [P3-P1' tetramer cluster], the relative_probability stood at 30.24.

MGWI [P3-P1' tetramer cluster] yielded a relative_probability of 29.72.

For LASL [P3-P1' tetramer cluster], the relative_probability came to 31.20.
